8 compounds from ChEMBL document CHEMBL5661943, “ASAP - In vitro antiviral effect” (2024) can be followed below.

Values joined by “and” are separate entries in the source; they are usually repeats but may differ in a detail not shown here. Equal values may be shown once.

Test [1] relates to Zika virus. In words: Functional immunofluorescence assay to measure dose dependent changes in antiviral-drug inhibitory efficacy against Zika virus PRVABC59 in Vero E6/TMPRSS2 cells. Cells are treated with antiviral candidates that are serially diluted, following infection, cells are fixed. EC50 is reported via analysis of immunofluorescence staining. The assay has been performed by Icahn School of Medicine at Mount Sinai. It counts as organism-based, Chlorocebus sabaeus. Particulars: for EC50: VeroE6/TMPRSS2.

Test [2] relates to dengue virus type 2. In words: Functional assay to measure dose dependent changes in antiviral-drug inhibitory efficacy against Dengue virus type 2 New Guinea C in Vero E6 miRFP670 cells (cotreated with P-gp inhibitor, CP100356). Cells are treated with antiviral candidates that are serially diluted, following infection, cells are fixed. EC50 is reported via analysis of fluorescence intensity using high-content imager. The …. Particulars: Dengue virus; for EC90: P-gp concentration 500 nM, P-gp inhibitor CP100356. It counts as organism-based, Chlorocebus sabaeus, Vero C1008.

Test [3] concerns Zika virus. In words: Functional CPE-based assay to measure dose dependent changes in antiviral-drug inhibitory efficacy against Zika virus MR766 in Vero E6 miRFP670 cells. Cells are treated with antiviral candidates that are serially diluted. EC50 is reported via analysis of MTS assay as a readout of CPE. The assay has been performed by KU Leuven. It counts as organism-based, Chlorocebus sabaeus, Vero C1008. The conditions noted are these: Zika virus.

Test [4] has as its system dengue virus type 2. Description: Functional immunofluorescence assay to measure dose dependent changes in antiviral-drug inhibitory efficacy against Dengue virus type 2 Thailand/16681/84 in Vero E6/TMPRSS2 cells (cotreated with P-gp inhibitor, Elacridar). Cells are treated with antiviral candidates that are serially diluted, following infection, cells are fixed. EC50 is reported via analysis of immunofluorescence staining. The assay has been performed by Icahn School of Medicine at Mount Sinai. It counts as organism-based, Chlorocebus sabaeus, VeroE6/TMPRSS2.

In test [5] the test system is dengue virus type 2. Description: Functional immunofluorescence assay to measure dose dependent changes in antiviral-drug inhibitory efficacy against Dengue virus type 2 Thailand/16681/84 in Vero E6/TMPRSS2 cells. Cells are treated with antiviral candidates that are serially diluted, following infection, cells are fixed. EC50 is reported via analysis of immunofluorescence staining. The assay has been performed by Icahn School of Medicine at Mount Sinai. It counts as organism-based, Chlorocebus sabaeus. Particulars: for EC50: VeroE6/TMPRSS2.

The subject of test [6] is Zika virus. Description: EC50 is reported via analysis of immunofluorescence staining. The assay has been performed by Icahn School of Medicine at Mount Sinai. Type of test: functional, organism-based, Chlorocebus sabaeus, VeroE6/TMPRSS2.

On to `NCCc1cccc(NC(=O)[C@H]2[C@H]3CCCCC[C@H]3[C@H]2NC(=O)OCc2ccccc2)c1`, for which the EC50 in test [1] is 16.3 µM; in test [2] (Vero C1008) it was 8.83 µM; in test [3] (Vero C1008), above 50 µM; in test [4] (Dengue virus, VeroE6/TMPRSS2) it was 0.852 µM; in test [5], above 1.85 µM; in test [6] (Zika virus, VeroE6/TMPRSS2), 1.51 µM. Further, the EC90 in test [1] (VeroE6/TMPRSS2, Baseline response 0 %, Hill slope -67.816, Maximum measured 128.901 %, Maximum response 100 %, Minimum measured 6.251 %, R squared 0.855) was 16.9 µM; in test [2] (Vero C1008, Baseline response 0 %, EC90 CI (lower) 4.071 uM, EC90 CI (upper) 8.838 uM, Hill slope -5.677, Maximum measured 107.479 %, Maximum response 100 %, Minimum measured 11.429 %, R squared 0.889), 13 µM; in test [3] (Vero C1008, Baseline response 0 %, Hill slope 0.101, Maximum measured 6.245 %, Maximum response 100 %, Minimum measured -3.134 %, R squared 0.013) it was above 50 µM; in test [4] (Dengue virus, VeroE6/TMPRSS2, Baseline response 0 %, Hill slope -0.607, Maximum measured 105.284 %, Maximum response 100 %, Minimum measured 41.503 %, P-gp concentration 2 uM, R squared 0.471, P-gp inhibitor Elacidar) it was above 1.85 µM; in test [5] (VeroE6/TMPRSS2, Maximum measured 147.779 %, Minimum measured 82.782 %), above 1.85 µM; in test [6] (Zika virus, VeroE6/TMPRSS2), 27.9 µM.
Take `CCc1cc(C(=O)Nc2cccc(CN)c2)sc1-c1ccc(Cl)cc1`: the half-maximal effective concentration (EC50) in test [2] (Vero C1008) is 7.88 µM; in test [4] (Dengue virus, VeroE6/TMPRSS2) it was 1.48 µM; in test [5] it was 0.04 µM; in test [6] (Zika virus, VeroE6/TMPRSS2), above 50 µM. The EC90 was 9.71 µM in test [2] (Vero C1008, Baseline response 0 %, EC90 CI (lower) 5.869 uM, EC90 CI (upper) 6.978 uM, Hill slope -10.543, Maximum measured 99.815 %, Maximum response 100 %, Minimum measured 0.348 %, R squared 0.992); above 5.56 µM in test [4] (Dengue virus, VeroE6/TMPRSS2, Baseline response 0 %, Hill slope -0.734, Maximum measured 115.481 %, Maximum response 100 %, Minimum measured 26.383 %, P-gp concentration 2 uM, R squared 0.805, P-gp inhibitor Elacidar); 1.14 µM in test [5] (VeroE6/TMPRSS2, Baseline response 0 %, EC90 CI (lower) 0 uM, EC90 CI (upper) […] uM, Hill slope -0.657, Maximum measured 73.173 %, Maximum response 100 %, Minimum measured 2.32 %, R squared 0.658); above 50 µM in test [6] (Zika virus, VeroE6/TMPRSS2, Baseline response 0 %, Hill slope -0.283, Maximum measured 157.581 %, Maximum response 100 %, Minimum measured 60.948 %, P-gp concentration 2 uM, R squared 0.14, P-gp inhibitor Elacidar).
As to `NCCCc1cccc(NC(=O)c2cc(Cl)cc(NC(=O)OCc3ccccc3)c2)n1`, the EC50 in test [1] is above 50 µM; in test [4] (Dengue virus, VeroE6/TMPRSS2) it was above 5.56 µM; in test [5], below 0.023 µM; in test [6] (Zika virus, VeroE6/TMPRSS2), 0.762 µM. Besides, the EC90 in test [1] (VeroE6/TMPRSS2, Maximum measured 444.624 %, Minimum measured 59.048 %) is above 50 µM; in test [4] (Dengue virus, VeroE6/TMPRSS2, Baseline response 0 %, Hill slope -0.245, Maximum measured 101.026 %, Maximum response 100 %, Minimum measured 51.347 %, P-gp concentration 2 uM, R squared 0.141, P-gp inhibitor Elacidar), above 5.56 µM; in test [5] (VeroE6/TMPRSS2, Baseline response 0 %, EC90 CI (lower) 0 uM, EC90 CI (upper) 0.069 uM, Hill slope -0.47, Maximum measured 66.667 %, Maximum response 100 %, Minimum measured 7.762 %, R squared 0.244) it was 2.12 µM; in test [6] (Zika virus, VeroE6/TMPRSS2, Baseline response 0 %, Hill slope -0.324, Maximum measured 72.025 %, Maximum response 100 %, Minimum measured 4.462 %, P-gp concentration 2 uM, R squared 0.463, P-gp inhibitor Elacidar) it was above 16.7 µM.
Take `O=C(Nc1cc(Cl)cc(C(=O)Nc2ccc3c(c2)CNC3)c1)OCc1ccccc1`: the EC50 in test [1] was above 50 µM; in test [2] (Vero C1008), above 50 µM; in test [4] (Dengue virus, VeroE6/TMPRSS2), above 3.33 µM; in test [4] (veroe6/tmprss2), above 5.56 µM; in test [5], 0.61 µM; in test [6] (Zika virus, VeroE6/TMPRSS2), above 3.33 µM. The compound also yielded an EC50 in test [6] (veroe6/tmprss2) of 4.56 µM. For the same compound, the EC90 was above 50 µM in test [1] (VeroE6/TMPRSS2, Maximum measured 887.776 %, Minimum measured 72.98 %); above 50 µM in test [2] (Vero C1008, Maximum measured 108.699 %, Minimum measured 64.199 %); above 5.56 µM in test [4] (Baseline response 0 %, Hill slope -0.262, Maximum measured 88.903 %, Maximum response 100 %, Minimum measured 51.493 %, P-gp concentration 2 uM, R squared 0.387, P-gp inhibitor Elacidar); above 3.33 µM in test [4] (Dengue virus, VeroE6/TMPRSS2, Baseline response 0 %, Hill slope 0.742, Maximum measured 298.531 %, Maximum response 100 %, Minimum measured 53.657 %, P-gp concentration 2 uM, R squared 0.04, P-gp inhibitor Elacidar); above 5.56 µM in test [5] (VeroE6/TMPRSS2, Baseline response 0 %, Hill slope -0.704, Maximum measured 114.373 %, Maximum response 100 %, Minimum measured 21.903 %, R squared 0.634); above 5.56 µM in test [6] (Baseline response 0 %, Hill slope -10.107, Maximum measured 106.671 %, Maximum response 100 %, Minimum measured 12.006 %, P-gp concentration 2 uM, R squared 0.759, P-gp inhibitor Elacidar). The same compound gave an EC90 in test [6] (Zika virus, VeroE6/TMPRSS2, Baseline response 0 %, Hill slope 0.615, Maximum measured 150.152 %, Maximum response 100 %, Minimum measured 64.245 %, P-gp concentration 2 uM, R squared 0.072, P-gp inhibitor Elacidar) above 3.33 µM.
As for `NCc1cccc(C(=O)Nc2cc(Cl)cc(NC(=O)OCc3ccccc3)c2)c1`, the EC50 was 3.17 µM in test [4] (Dengue virus, VeroE6/TMPRSS2); above 5.56 µM in test [5]; 2.1 µM and 0.867 µM in test [6] (veroe6/tmprss2). Besides, the EC90 in test [4] (Dengue virus, VeroE6/TMPRSS2) was 5.42 µM; in test [5] (VeroE6/TMPRSS2, Maximum measured 181.372 %, Minimum measured 88.426 %), above 5.56 µM; in test [6] (Baseline response 0 %, Hill slope -0.985, Maximum measured 92.072 %, Maximum response 100 %, Minimum measured 6.61 %, P-gp concentration 2 uM, R squared 0.567, P-gp inhibitor Elacidar) it was above 5.56 µM; in test [6] (Zika virus, VeroE6/TMPRSS2, Baseline response 0 %, Hill slope -0.721, Maximum measured 131.562 %, Maximum response 100 %, Minimum measured 27.938 %, P-gp concentration 2 uM, R squared 0.396, P-gp inhibitor Elacidar) it was above 3.33 µM.
In the case of `O=C(O)c1cc(Cl)ccc1NS(=O)(=O)c1ccc(Oc2ccccc2Cl)cc1`, the results for the EC50 in test [1] and in test [5] were above 50 µM and below 0.023 µM, respectively. The EC90 in test [1] (VeroE6/TMPRSS2, Baseline response 0 %, Hill slope 0.308, Maximum measured 143.489 %, Maximum response 100 %, Minimum measured 67.888 %, R squared 0.041) was above 50 µM; in test [5] (VeroE6/TMPRSS2, Baseline response 0 %, Hill slope -0.289, Maximum measured 50.892 %, Maximum response 100 %, Minimum measured 16.572 %, R squared 0.294), above 5.56 µM.
With `Cc1cc(CN)cc(NC(=O)c2cc(Cl)cc(NC(=O)OCc3ccccc3)c2)c1`, the EC50 in test [1] is above 50 µM; in test [4] (Dengue virus, VeroE6/TMPRSS2), above 1.85 µM; in test [5], above 5.56 µM; in test [6] (veroe6/tmprss2), 3.14 µM and 0.66 µM. For the same compound, the EC90 in test [1] (VeroE6/TMPRSS2, Maximum measured 728.77 %, Minimum measured 52.412 %) is above 50 µM; in test [4] (Dengue virus, VeroE6/TMPRSS2, Maximum measured 126.603 %, Minimum measured 82.463 %, P-gp concentration 2 uM, P-gp inhibitor Elacidar) it was above 1.85 µM; in test [5] (VeroE6/TMPRSS2, Maximum measured 117.926 %, Minimum measured 57.292 %), above 5.56 µM; in test [6] (Baseline response 0 %, Hill slope -0.823, Maximum measured 127.605 %, Maximum response 100 %, Minimum measured 3.711 %, P-gp concentration 2 uM, R squared 0.613, P-gp inhibitor Elacidar) it was above 5.56 µM; in test [6] (Zika virus, VeroE6/TMPRSS2, Baseline response 0 %, Hill slope -1.09, Maximum measured 145.706 %, Maximum response 100 %, Minimum measured 48.4 %, P-gp concentration 2 uM, R squared 0.191, P-gp inhibitor Elacidar), above 3.33 µM.
Take `Cc1cc(-c2ccc([C@@H](NC(=O)OCc3ccccc3)C(=O)Nc3cccc(CN)c3)cc2)cs1`: the EC50 in test [1] was above 50 µM; in test [4] (Dengue virus, VeroE6/TMPRSS2) it was above 5.56 µM; in test [5], 0.145 µM; in test [6] (Zika virus, VeroE6/TMPRSS2), above 50 µM. Also, the EC90 in test [1] (VeroE6/TMPRSS2, Maximum measured 207.969 %, Minimum measured 85.523 %) was above 50 µM; in test [4] (Dengue virus, VeroE6/TMPRSS2, Maximum measured 25.792 %, Minimum measured 7.149 %, P-gp concentration 2 uM, P-gp inhibitor Elacidar), above 5.56 µM; in test [5] (VeroE6/TMPRSS2, Baseline response 0 %, Hill slope -0.322, Maximum measured 78.243 %, Maximum response 100 %, Minimum measured 15.352 %, R squared 0.327), above 5.56 µM; in test [6] (Zika virus, VeroE6/TMPRSS2, Maximum measured 84.809 %, Minimum measured 8.553 %, P-gp concentration 2 uM, P-gp inhibitor Elacidar) it was above 50 µM.
